From patent US8940739B2, “Compound of a reverse-turn mimetic and a production method and use therefor” (JW Pharmaceutical Corporation, priority 2010, dated 2015)

Tests used:
[1] = biological target: cDNA-expressed human hepatic CYP3A4 (Homo sapiens (Human), UniProt P08684); experiment: Measurement of CYP (IC50 of P450 CYP3A4), BFC substrate; assay type: in vitro ADME; details: 20 minutes
Description: The compounds of the present invention had lower P450 CYP3A4 inhibitory activity (higher IC50). Lower CYP3A4 inhibitory activity means that the compounds of the present invention cause fewer side-effects from the pharmacological point of view.
This assay was performed in a 200 l volume in 96-well microtiter plates using cDNA-expressed human hepatic CYP3A4 (supersome, BD Gentest™ #456202). As a substrate for CYP3A4, 7-benzyloxy-4-trifluoromethyl-coumarin (BFC) was used. The compounds of Examples 1 to 5 and the substrate BFC were dissolved in 100% acetonitrile. The final volume of acetonitrile of the incubation mixture was less than 1% (volume/volume). A potassium phosphate buffer (pH 7.4, final concentration 0.1M), MgCl2 (final concentration 8.3 mM), EDTA (final concentration 1.67 mM), an inventive compound stock solution, CYP3A4 supersome, and NADPH (final concentration 0.25 mM) were added to each well. The reaction was initiated by adding the substrate (BFC, final concentration 30 µM) at 37. The incubation was performed for 20 minutes and then the reaction was terminated by the addition of 75 μl of acetonitrile: 0.5 M tris-base=4:1 (volume/volume).
Then, a fluorescent signal was measured using a fluorometer. A BFC metabolite, 7-hydroxy-4-trifluoromethyl-coumarin, was measured using an excitation wavelength of 409 nm and an emission wavelength of 530 nm.

[2] = tested on: MV-4-11 (human, Acute Myeloid Leukemia cell line) cells; experiment: Cell growth inhibition assay, GI50 of MV-4-11; assay type: cell-based; details: Homo sapiens, MV4-11, 72 h, MV-4-11 cells
How it was run: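 MV-4-11 AML cells (5×10^4/well, IMDM with 10% FBS) treated in duplicate with serially diluted compounds for 72 hours at 37 °C. Viability read as absorbance at 490 nm after CellTiter 96 Aqueous One (MTS) addition; GI50 calculated from the concentration-response.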

Chain of cDNA-expressed human hepatic CYP3A4 (P08684 whole entry): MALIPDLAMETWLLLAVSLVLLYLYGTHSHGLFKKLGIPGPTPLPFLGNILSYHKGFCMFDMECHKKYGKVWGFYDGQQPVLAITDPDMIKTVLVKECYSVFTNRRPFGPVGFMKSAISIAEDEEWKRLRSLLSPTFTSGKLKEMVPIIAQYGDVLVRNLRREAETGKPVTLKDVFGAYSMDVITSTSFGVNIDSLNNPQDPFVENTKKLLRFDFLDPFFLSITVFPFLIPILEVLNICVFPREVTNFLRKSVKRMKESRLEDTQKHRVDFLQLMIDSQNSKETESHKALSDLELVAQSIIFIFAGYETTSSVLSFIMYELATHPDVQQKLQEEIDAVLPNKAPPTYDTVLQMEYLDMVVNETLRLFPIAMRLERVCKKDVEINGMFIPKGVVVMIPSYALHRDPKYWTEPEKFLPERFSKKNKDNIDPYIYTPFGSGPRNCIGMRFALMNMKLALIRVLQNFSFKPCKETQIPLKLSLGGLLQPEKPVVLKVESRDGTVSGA

Row | Structure (SMILES) | IC50 [1] [µM] | GI50 [2] [µM]
1 | C=CCN1CC(=O)N2[C@@H](Cc3ccc(O)cc3)C(=O)N(Cc3cccc4c(-c5ccc(NC(=O)NCCc6ccccc6)cc5)cn(C)c34)C[C@@H]2N1C(=O)NCc1ccccc1 [Compound D-75] | 10.5 | 0.017
2 | C=CCN1CC(=O)N2[C@@H](Cc3ccc(O)cc3)C(=O)N(Cc3cccc4c(C(=O)NC5CCN(C(=O)c6ccc(N(C)C)cc6)CC5)cn(C)c34)C[C@@H]2N1C(=O)NCc1ccccc1 [Compound F-66] | 6.15 | 0.0175
3 | C=CCN1CC(=O)N2C(Cc3ccc(O)cc3)C(=O)N(Cc3cccc4c(-c5ccc(NC(=O)N6CCN(S(C)(=O)=O)CC6)nc5)cn(C)c34)CC2N1C(=O)NCc1ccccc1 (centres unmarked) [Compound G-68] | 6.4 | 0.0022
4 | C=CCN1CC(=O)N2C(Cc3ccc(O)cc3)C(=O)N(Cc3cccc4c(C(=O)Nc5ccc(NCCCN6CCCC6)nc5)cn(C)c34)CC2N1C(=O)NCc1ccccc1 (centres unmarked) [Compound G-32] | 2.57 | 0.0119
5 | C=CCN1CC(=O)N2[C@@H](Cc3ccc(O)cc3)C(=O)N(Cc3cccc4c(C(=O)NCc5ccnc(N(C)C)c5)cn(C)c34)C[C@@H]2N1C(=O)NCc1ccccc1 [Compound F-48] | 2.18 | 0.0107
6 | C=CCN1CC(=O)N2[C@@H](Cc3ccc(O)cc3)C(=O)N(Cc3cccc4c(C(=O)Nc5ccc(N6CCC(OC)CC6)nc5)cn(C)c34)C[C@@H]2N1C(=O)NCc1ccccc1 [Compound G-38] | 2.21 | 0.0006
7 | C=CCN1CC(=O)N2[C@@H](Cc3ccc(O)cc3)C(=O)N(Cc3cccc4c(C(=O)N5CCN6CCCC6C5)cn(C)c34)C[C@@H]2N1C(=O)NCc1ccccc1 (some centres unmarked) [Compound E-43] | 6.6 | 0.0151
8 | C=CCN1CC(=O)N2C(Cc3ccc(O)cc3)C(=O)N(Cc3cccc4c(C(=O)Nc5ccc(N6CCN(C7CC7)CC6)nc5)cn(C)c34)CC2N1C(=O)NCc1ccccc1 (centres unmarked) [Compound G-49] | 6.94 | 0.0013
9 | C=CCN1CC(=O)N2[C@@H](Cc3ccc(O)cc3)C(=O)N(Cc3cccc4c(-c5ccc(NC(=O)c6ccc(N(C)C)cc6)cc5)cn(C)c34)C[C@@H]2N1C(=O)NCc1ccccc1 [Compound D-51] | > 25 | 0.0054
10 | C=CCN1CC(=O)N2[C@@H](Cc3ccc(O)cc3)C(=O)N(Cc3cccc4c(C(=O)Nc5ccc(OCCCN(C)C)nc5)cn(C)c34)C[C@@H]2N1C(=O)NCc1ccccc1 [Compound G-13] | 13 | 0.009
11 | C=CCN1CC(=O)N2C(CN(Cc3cccc4c(C(=O)Nc5ccc(N6CCNCC6)nc5)cn(C)c34)C(=O)[C@@H]2Cc2ccc(O)cc2)N1C(=O)NCc1ccccc1 (some centres unmarked) [Compound G-39] | 2.73 | 0.0113
12 | C=CCN1CC(=O)N2C(Cc3ccc(O)cc3)C(=O)N(Cc3cccc4c(C(=O)Nc5ccc(N6CCN(C(C)(C)C)CC6)nc5)cn(C)c34)CC2N1C(=O)NCc1ccccc1 (centres unmarked) [Compound G-48] | 4.19 | 0.0013
13 | C=CCN1CC(=O)N2[C@@H](Cc3ccc(O)cc3)C(=O)N(Cc3cccc4c(C(=O)Nc5ccc(N6CC(N7CCN(C)CC7)C6)nc5)cn(C)c34)C[C@@H]2N1C(=O)NCc1ccccc1 [Compound G-62] | 4.1 | 0.0014
14 | C=CCN1CC(=O)N2[C@@H](Cc3ccc(O)cc3)C(=O)N(Cc3cccc4c(C(=O)NCc5ccc(N(C)C)nc5)cn(C)c34)C[C@@H]2N1C(=O)NCc1ccccc1 [Compound F-47] | 2.05 | 0.0069
15 | C=CCN1CC(=O)N2[C@@H](Cc3ccc(O)cc3)C(=O)N(Cc3cccc4c(-c5ccc(C(=O)NN6CCN(c7ccccn7)CC6)cc5)cn(C)c34)C[C@@H]2N1C(=O)NCc1ccccc1 [Compound D-44] | > 25 | 0.0195
16 | C=CCN1CC(=O)N2C(CN(Cc3cccc4c(C(=O)Nc5ccc(OC)nc5)cn(C)c34)C(=O)[C@@H]2Cc2ccc(O)cc2)N1C(=O)NCc1ccccc1 (some centres unmarked) [Compound G-5] | 2.16 | 0.0088
17 | C=CCN1CC(=O)N2[C@@H](Cc3ccc(O)cc3)C(=O)N(Cc3cccc4c(C(=O)Nc5ccc(N6CCC(N7CCN(C)CC7)CC6)nc5)cn(C)c34)C[C@@H]2N1C(=O)NCc1ccccc1 [Compound G-57] | 6.32 | 0.0013
18 | C=CCN1CC(=O)N2[C@@H](Cc3ccc(O)cc3)C(=O)N(Cc3cccc4c(-c5ccc(NC(=O)NC6CCN(C)CC6)nc5)cn(C)c34)C[C@@H]2N1C(=O)NCc1ccccc1 [Compound D-98] | 2.92 | 0.023
19 | C=CCN1CC(=O)N2C(CN(Cc3cccc4c(C(=O)Nc5ccc(N6CCC7CCCN7C6)nc5)cn(C)c34)C(=O)[C@@H]2Cc2ccc(O)cc2)N1C(=O)NCc1ccccc1 (some centres unmarked) [Compound G-66] | 4.6 | 0.0013

Row | Structure (SMILES) | IC50 [1] [µM] | GI50 [2] [µM]
20 | C=CCN1CC(=O)N2C(CN(Cc3cccc4c(C(=O)Nc5ccc(N6CCN(C(C)C)CC6)nc5)cn(C)c34)C(=O)[C@@H]2Cc2ccc(O)cc2)N1C(=O)NCc1ccccc1 (some centres unmarked) [Compound G-46] | 6.12 | 0.0013
21 | C=CCN1CC(=O)N2C(Cc3ccc(O)cc3)C(=O)N(Cc3cccc4c(C(=O)Nc5ccc(N6CCN(CCO)CC6)nc5)cn(C)c34)CC2N1C(=O)NCc1ccccc1 (centres unmarked) [Compound G-44] | 6.04 | 0.0013
22 | C=CCN1CC(=O)N2C(Cc3ccc(O)cc3)C(=O)N(Cc3cccc4c(C(=O)Nc5ccc(N6CCN(CCC)CC6)nc5)cn(C)c34)CC2N1C(=O)NCc1ccccc1 (centres unmarked) [Compound G-43] | 6.94 | 0.0013
23 | C=CCN1CC(=O)N2C(Cc3ccc(O)cc3)C(=O)N(Cc3cccc4c(C(=O)Nc5ccc(N6CCN(C(C)=O)CC6)nc5)cn(C)c34)CC2N1C(=O)NCc1ccccc1 (centres unmarked) [Compound G-53] | > 25 | 0.0013
24 | C=CCN1CC(=O)N2[C@@H](Cc3ccc(O)cc3)C(=O)N(Cc3cccc4c(C(=O)N(C)CCN5CCOCC5)cn(C)c34)C[C@@H]2N1C(=O)NCc1ccccc1 [Compound F-26] | 2.86 | 0.0198
25 | C=CCN1CC(=O)N2C(CN(Cc3cccc4c(C(=O)Nc5ccc(N6CCN(CC)CC6)nc5)cn(C)c34)C(=O)[C@@H]2Cc2ccc(O)cc2)N1C(=O)NCc1ccccc1 (some centres unmarked) [Compound G-42] | 5.73 | 0.0013
26 | C=CCN1CC(=O)N2[C@@H](Cc3ccc(O)cc3)C(=O)N(Cc3cccc4c(C(=O)Nc5ccc(OC)cc5)cn(C)c34)C[C@@H]2N1C(=O)NCc1ccccc1 [Compound G-3] | 2.61 | 0.0057
27 | C=CCN1CC(=O)N2[C@@H](Cc3ccc(O)cc3)C(=O)N(Cc3cccc4c(C(=O)Nc5ccc(N6CC7CCN(C)C7C6)nc5)cn(C)c34)C[C@@H]2N1C(=O)NCc1ccccc1 (some centres unmarked) [Compound G-64] | 7.64 | 0.0013
28 | C=CCN1CC(=O)N2[C@@H](Cc3ccc(O)cc3)C(=O)N(Cc3cccc4c(C(=O)N5CCN(C)CC5)cn(C)c34)C[C@@H]2N1C(=O)NCc1ccccc1 [Compound E-4] | 12.2 | 0.0112
29 | C=CCN1CC(=O)N2[C@@H](Cc3ccc(O)cc3)C(=O)N(Cc3cccc4c(C(=O)NC5CCN(C(=O)OC(C)(C)C)CC5)cn(C)c34)C[C@@H]2N1C(=O)NCc1ccccc1 [Compound F-61] | 5.65 | 0.0016
30 | C=CCN1CC(=O)N2[C@@H](Cc3ccc(O)cc3)C(=O)N(Cc3cccc4c(-c5ccc(C#N)cc5)cn(C)c34)C[C@@H]2N1C(=O)NCc1ccccc1 [Compound H-2] | 9.33 | 0.0178
31 | C=CCN1CC(=O)N2[C@@H](Cc3ccc(O)cc3)C(=O)N(Cc3cccc4c(-c5ccc(C(=O)Nc6ccc(OCCCC)cc6)cc5)cn(C)c34)C[C@@H]2N1C(=O)NCc1ccccc1 [Compound D-23] | > 25 | –
32 | C=CCN1CC(=O)N2[C@@H](Cc3ccc(O)cc3)C(=O)N(Cc3cccc4c(C(=O)N5CCC(NC(=O)c6ccc(N7CCN(C)CC7)cc6)CC5)cn(C)c34)C[C@@H]2N1C(=O)NCc1ccccc1 [Compound E-60] | 6.02 | –
33 | C=CCN1CC(=O)N2[C@@H](Cc3ccc(O)cc3)C(=O)N(Cc3cccc4c(C(=O)N5CCN(CC6CCCC6)CC5)cn(C)c34)C[C@@H]2N1C(=O)NCc1ccccc1 [Compound E-21] | > 25 | –
34 | C=CCN1CC(=O)N2[C@@H](Cc3ccc(O)cc3)C(=O)N(Cc3cccc4c(-c5ccc(NC(=O)NCC(C)(C)C)nc5)cn(C)c34)C[C@@H]2N1C(=O)NCc1ccccc1 [Compound D-96] | 2.19 | –
35 | C=CCN1CC(=O)N2[C@@H](Cc3ccc(O)cc3)C(=O)N(Cc3cccc4c(C(=O)N5CCN6CCN(C=O)CC6C5)cn(C)c34)C[C@@H]2N1C(=O)NCc1ccccc1 (some centres unmarked) [Compound E-48] | 12.1 | –
36 | C=CCN1CC(=O)N2[C@@H](Cc3ccc(O)cc3)C(=O)N(Cc3cccc4c(C(=O)NN5CCCC5)cn(C)c34)C[C@@H]2N1C(=O)NCc1ccccc1 [Compound F-56] | 17.4 | –
37 | C=CCN1CC(=O)N2[C@@H](Cc3ccc(O)cc3)C(=O)N(Cc3cccc4c(C(=O)N[C@H](C)C(=O)OC)cn(C)c34)C[C@@H]2N1C(=O)NCc1ccccc1 [Compound F-21] | 10.9 | –
38 | C=CCN1CC(=O)N2[C@@H](Cc3ccc(O)cc3)C(=O)N(Cc3cccc4c(-c5ccc(NC(=O)CCCNCCC(C)=O)cc5)cn(C)c34)C[C@@H]2N1C(=O)NCc1ccccc1 [Compound D-72] | 2.78 | –
